Earlier results in patent US20240156891A1, “EXTRACTS OF SALVIA MILTIORRHIZA AND/OR PONCIRUS TRIFOLIATA FOR INHIBITING BODY WEIGHT GAIN” (Taipei Medical University, priority 2022, published 2024).

settings: typical values of solvents

SMILES | log Kow
CCCCCC [n-hexane] | 3.17~3.94
CO [methanol] | −0.82~−0.66
CC(C)=O [acetone] | −0.24
CCOC(C)=O [ethyl acetate] | 0.66~0.73
